The assay has as its system SFV-Rluc. The note with it: for SFV replication % left: primary screening of chemical libraries, compounds tested at 50 µM; for % left (remaining SFV replication): Supplementary Table 2, moderately active compounds (25 - 60% remaining), primary screen at 50 µM.

For `O=c1c(O)c(-c2ccc(O)c(O)c2)oc2cc(O)c(O)c(O)c12` [NC-079], the “SFV replication % left” value came out at 90.2%. On the same count and under the same terms, to `Cc1ccccc1OCC(O)CO` (stereo not drawn) [PC-110] belongs 79.2%. Regarding `C[C@@H]1O[C@@H](OC[C@H]2O[C@@H](Oc3c(-c4ccc(O)c(O)c4)oc4cc(O)cc(O)c4c3=O)[C@H](O)[C@@H](O)[C@@H]2O)[C@H](O)[C@H](O)[C@H]1O` [NC-090], the “% left (remaining SFV replication)” value is listed as 44.1% and the “SFV replication % left” value amounted to 44.1%. As for `CCCCC1C(=O)N(c2ccccc2)N(c2ccc(O)cc2)C1=O` (stereo not drawn) [PC-143], the “SFV replication % left” value stood at 84.8%. The same measure, in the same setting: the figure for `NS(=O)(=O)c1cc2c(cc1Cl)N=CNS2(=O)=O` [PC-045] is 90.3%; for `O=C(O[C@@H]1Cc2c(O)cc(O)cc2O[C@@H]1c1ccc(O)c(O)c1)c1cc(O)c(O)c(O)c1` [NC-035] it is 94.8%. Still for that read-out and setting: the figure for `N[C@@H](Cc1ccc(O)c(O)c1)C(=O)O` [PC-007] is 43.6%; for `COc1cc2ccc(=O)oc2c(O)c1OC` [NC-111] it is 77.8%. Take `O=c1c(O)c(-c2cc(O)c(O)c(O)c2)oc2cc(O)cc(O)c12` [NC-068]: the “SFV replication % left” value is 2.0%. Still for that read-out and setting: to `CNCCC=C1c2ccccc2CCc2ccccc21.Cl` [PC-136] belongs 5.3%. As for `Cc1cccc(C)c1NC(=O)C1CCCCN1C.Cl` (stereo not drawn) [PC-112], the “SFV replication % left” value is recorded as 74.9%. Turning to `O=S(=O)(O)NC1CCCCC1` [PC-053], the “SFV replication % left” value amounted to 74.9%.

Consider `O=C(O)/C=C/c1ccc(O)c(O)c1` [NC-010], for which the “SFV replication % left” value was 98.7%. Same read-out and setting: the figure for `O=c1cc(-c2ccc(O)c(O)c2)oc2cc(O[C@@H]3O[C@H](CO)[C@@H](O)[C@H](O)[C@H]3O)cc(O)c12` [NC-062] is 17.8%; for `CN1C(=O)CN=C(c2ccc(Cl)cc2)c2cc(Cl)ccc21` [PC-043] it is 64.0%. `O=c1ccc2cc(O)c(O)cc2o1` [NC-126]: the “SFV replication % left” value is given as 103.6%.

Take `Cc1cc(=O)oc2cc(O)cc(O)c12` [NC-122]: the “SFV replication % left” value is reported as 66.7%. In the case of `CCC1(CC)C(=O)NC(=O)NC1=O` [PC-020], the “SFV replication % left” value was 64.7%. The same measure, in the same setting: to `CC(C)(O)C(Cl)(Cl)Cl` [PC-042] belongs 84.2%. Consider `COc1cc(C(=O)O)cc(OC)c1OC` [NC-102], for which the “% left (remaining SFV replication)” value worked out at 34.1% and the “SFV replication % left” value was 34.0%. Regarding `O=c1ccc2ccc(O)cc2o1` [NC-115], the “SFV replication % left” value stood at 78.4%. For `Oc1ccc(C(O)CNCCCCCCNCC(O)c2ccc(O)c(O)c2)cc1O` (stereo not drawn) [PC-088], the “SFV replication % left” value came to 124.9%. As for `O=C(O)c1cc(O)cc(O)c1` [NC-027], the “SFV replication % left” value came to 6.9%. On the same count and under the same terms, to `CN(C)CC[C@@H](c1ccc(Cl)cc1)c1ccccn1.O=C(O)/C=C\C(=O)O` [PC-059] belongs 68.1%; to `O=C(O)/C=C\C(=O)O.O=C(O)/C=C\C(=O)O.OCCN1CCN(CCCN2c3ccccc3Sc3ccc(C(F)(F)F)cc32)CC1` [PC-084], 98.9%. For the molecule `O=C1NC2NC(=O)NC2N1` (stereo not drawn) [PC-004], the “SFV replication % left” value was found to be 55.2%. With `COc1c2occc2c(OC)c2c(=O)cc(C)oc12` [NC-058], the “SFV replication % left” value worked out at 120.6%. As to `CC(C)NCC(O)c1ccc(O)c(O)c1.Cl` (stereo not drawn) [PC-103], the “SFV replication % left” value was 112.5%.

Take `O=c1oc2cc(O)ccc2cc1-c1nc2ccccc2o1` [NC-007]: the “SFV replication % left” value is 21.0%. Consider `O=c1c(O)c(-c2ccc(O)cc2)oc2cc(O)cc(O)c12` [NC-057], for which the “SFV replication % left” value is listed as 2.9%. On the same count and under the same terms, to `Cc1ccc(O)c(O)c1` [NC-070] belongs 111.1%; to `O=c1cc(O)c2ccccc2o1` [NC-117], 100.2%.

As for `Cc1ncc(CO)c(CO)c1O.Cl` [PC-178], the “SFV replication % left (surviving fraction, remaining percentage of SFV replication)” value is on record as 100.9%.

Take `O=c1oc2ccccc2c(O)c1Cc1c(O)c2ccccc2oc1=O` [PC-063]: the “SFV replication % left” value is given as 65.6%. For `COCCc1ccc(OCC(O)CNC(C)C)cc1.COCCc1ccc(OCC(O)CNC(C)C)cc1.O=C(O)C(O)C(O)C(=O)O` (stereo not drawn) [PC-122], the “SFV replication % left” value stood at 65.7%. As to `CN(C)c1cccc2c(S(=O)(=O)Cl)cccc12` [NC-032], the “SFV replication % left” value came to 4.6%.

As for `O=c1cc(-c2ccccc2)oc2ccccc12` [NC-040], the “SFV replication % left” value was 52.2%. With `CC(Cc1ccc2c(c1)OCO2)NCC(O)c1ccc(O)c(O)c1.Cl` (stereo not drawn) [PC-177], the “SFV replication % left (surviving fraction, remaining percentage of SFV replication)” value is recorded as 128.4%. `CC(=O)Oc1c(C)cc(OCC(O)CNC(C)C)c(C)c1C` (stereo not drawn) [PC-120]: the “% left (remaining SFV replication)” value was determined as 46.7% and the “SFV replication % left” value worked out at 46.2%.

Take `CCn1cc(C(=O)O)c(=O)c2ccc(C)nc21` [PC-125]: the “SFV replication % left” value stood at 80.4%. As for `C[C@H](CCC(=O)O)[C@H]1CC[C@H]2[C@@H]3CC[C@@H]4C[C@H](O)CC[C@]4(C)[C@H]3C[C@H](O)[C@]12C` [PC-054], the “SFV replication % left” value was found to be 86.5%. For the molecule `CC[C@H]1CN2CCc3cc(OC)c(OC)cc3[C@@H]2C[C@@H]1C[C@H]1NCCc2cc(OC)c(OC)cc21.Cl.Cl` [PC-072], the “SFV replication % left” value worked out at 63.1%.

Turning to `O=c1ccc2ccc(O)c(O)c2o1` [NC-021], the “SFV replication % left” value came to 81.7%. Still for that read-out and setting: the figure for `COc1cc(O)c2c(=O)c(OC)c(-c3ccc(OC)c(OC)c3)oc2c1` [NC-081] is 65.0%.

Turning to `COc1ccc(CN(CCN(C)C)c2ccccn2)cc1.O=C(O)/C=C\C(=O)O` [PC-179], the “SFV replication % left (surviving fraction, remaining percentage of SFV replication)” value was 73.7%. For `O=C(O)c1ccccc1` [NC-005], the “SFV replication % left” value was found to be 71.6%. With `Cc1nnc(NS(=O)(=O)c2ccc(N)cc2)s1` [PC-203], the “SFV replication % left (surviving fraction, remaining percentage of SFV replication)” value stood at 89.6%. Consider `COc1ccc2oc(=O)cc(C)c2c1` [NC-119], for which the “SFV replication % left” value was 66.6%. Turning to `CC(=O)CC(c1ccccc1)c1c(O)c2ccccc2oc1=O` (stereo not drawn) [NC-118], the “SFV replication % left” value is 79.5%. Same read-out and setting: to `COc1cc(C(=O)O)cc(OC)c1O` [NC-097] belongs 61.1%; to `O=C1c2c(O)cc(O)cc2O[C@H](c2ccc(O)c(O)c2)[C@H]1O` [NC-100], 93.7%; to `C[N+]1(C)[C@@H]2CC[C@H]1C[C@@H](OC(=O)C(CO)c1ccccc1)C2.[Br-]` (stereo partly drawn) [PC-117], 70.9%.

With `CC(=O)Nc1ccccc1` [PC-002], the “SFV replication % left” value amounted to 57.3%. Still for that read-out and setting: to `CC(C)OC(=O)c1cc(O)c(O)c(O)c1` [NC-054] belongs 124.0%. Still for that read-out and setting: the figure for `NC(=O)c1cccnc1` [PC-129] is 116.9%; for `COc1ccccc1OCC(O)CO` (stereo not drawn) [PC-086] it is 124.5%. In the case of `CCN(CC)CCNC(=O)c1ccc(N)cc1.Cl` [PC-166], the “SFV replication % left (surviving fraction, remaining percentage of SFV replication)” value was found to be 89.0%. For the molecule `Cc1cc(=O)n(-c2ccccc2)n1C` [PC-015], the “SFV replication % left” value is 60.1%.

As to `CCCCOC(=O)c1ccc(N)cc1` [PC-031], the “SFV replication % left” value was found to be 76.6%. The same measure, in the same setting: the figure for `C[C@H](N)[C@H](O)c1cccc(O)c1.O=C(O)C(O)C(O)C(=O)O` [PC-114] is 96.5%; for `CCCCCCCCCCCCCCCC[N+](C)(C)C.[Br-]` [PC-039] it is 75.0%. Take `O=C(O)c1ccc(O)cc1O` [NC-055]: the “% left (remaining SFV replication)” value was 32.1% and the “SFV replication % left” value came to 32.1%. Take `Cc1cc(=O)oc2cc(O)ccc12` [NC-065]: the “SFV replication % left” value amounted to 12.0%.

`O=C(O)Cc1cccc(O)c1` [NC-051]: the “SFV replication % left” value turned out to be 110.8%.

For the molecule `CN1C(=O)NC(=O)C(C)(C2=CCCCC2)C1=O` (stereo not drawn) [PC-087], the “SFV replication % left” value stood at 121.3%. With `Oc1cc(O)c2c(c1)O[C@H](c1ccc(O)c(O)c1)[C@H](O)[C@H]2c1c(O)cc(O)c2c1O[C@H](c1ccc(O)c(O)c1)[C@H](O)C2` [NC-075], the “SFV replication % left” value is 93.7%. Take `CN1CCCCC1CCN1c2ccccc2Sc2ccc([S+](C)[O-])cc21.O=S(=O)(O)c1ccccc1` (stereo not drawn) [PC-113]: the “SFV replication % left” value is recorded as 93.8%. Take `COc1c2occc2cc2ccc(=O)oc12` [NC-129]: the “SFV replication % left” value is listed as 86.7%. With `O=c1oc2c3c4c(cc2c2c1CCC2)CCCN4CCC3` [NC-130], the “SFV replication % left” value was determined as 82.1%. On the same count and under the same terms, to `O=C(/C=C/c1ccc(O)c(O)c1)O[C@H](Cc1ccc(O)c(O)c1)C(=O)O` [NC-088] belongs 120.3%.

Take `CC(C)Cc1ccc(CC(=O)O)cc1` [PC-098]: the “SFV replication % left” value is 102.2%. On the same count and under the same terms, the figure for `COc1ccc(OC)c(C(O)C(C)N)c1.Cl` (stereo not drawn) [PC-116] is 98.4%; for `COc1cc(O)c2c(=O)c(O)c(-c3ccc(O)c(O)c3)oc2c1` [NC-087] it is 119.1%. The same measure, in the same setting: the figure for `CN(C)CC/C=C1/c2ccccc2Sc2ccc(Cl)cc21.Cl` [PC-047] is 90.3%; for `C#C[C@]1(O)CC[C@H]2[C@@H]3CCc4cc(O)ccc4[C@H]3CC[C@@]21C` [PC-077] it is 11.7%; for `Cl.Cl.OCCN1CCN(CC/C=C2/c3ccccc3Sc3ccc(C(F)(F)F)cc32)CC1` [PC-082] it is 92.6%.

Take `CC(C)NCC(O)c1ccc(NS(C)(=O)=O)cc1.Cl` (stereo not drawn) [PC-191]: the “SFV replication % left (surviving fraction, remaining percentage of SFV replication)” value stood at 100.5%. For `CC(CN1c2ccccc2Sc2ccccc21)[N+](C)(C)CCO.[Cl-]` (stereo not drawn) [PC-096], the “SFV replication % left” value is 102.2%. In the case of `Cc1c(N(C)CS(=O)(=O)[O-])c(=O)n(-c2ccccc2)n1C.[Na+]` [PC-069], the “SFV replication % left” value turned out to be 86.0%. For the molecule `CNC1=Nc2ccc(Cl)cc2C(c2ccccc2)=[N+]([O-])C1` [PC-041], the “% left (remaining SFV replication)” value was 54.3% and the “SFV replication % left” value worked out at 54.3%. For `CN1CCC(CN2c3ccccc3Sc3ccccc32)C1` (stereo not drawn) [PC-115], the “SFV replication % left” value was 22.5%. `CS(=O)(=O)OCCCCOS(C)(=O)=O` [PC-028]: the “SFV replication % left” value stood at 51.8%.
